Legend:
T47D cells = assay: perforin and granzyme B-induced tumor cell death; format: cell-based, human; conditions: FOXO1 knocked down T47D cells, FIG. 4h
Procedure: Tumor cells were exposed to hypoxia for 24 hours, or the indicated conditions. Then, tumor cells were co-incubated with perform (APB317Hu01, Cloud-Clone) and granzyme B (2906-SE-010, R&D system) for 10 minutes. PI (10 μg/ml) was added into the culture. PI^+ cells were measured by flow cytometry.

4T1 tumors [1] = assay: therapeutic experiments in 4T1 tumor bearing BALB/cJ mice (tumor volume, tumor weight); format: in vivo, mouse; conditions: anti-PD-L1 and combination experiment
Procedure: Six to eight week-old female BALB/cJ mice were purchased from The Jackson Laboratory. The work was approved by the Institutional Animal Care and Use Committee at the University of Michigan. Slc6a14^−/− and Slc6a14^+/+ 4T1 tumor cells were inoculated into the fourth right mammary fat pad of BALB/cJ mice. Tumor size was measured every three days using calipers fitted with Vernier scale. Tumor volume (TV) was calculated using the formula: TV=0.5×L×W^2. In some cases, single cell suspensions were made from spleen and tumor tissues for immune phenotype and function analysis.
(§1) For the therapeutic experiments, 2*10^4 4T1 cells were inoculated into the fourth right mammary fat pad of BALB/cJ mice. On day 3, mice were treated (i.p.) with 200 μg of anti-PD-L1 (Bio X Cell) every 3 days, and/or with 250 μg of 4-HAP (i.p., 278564, Sigma) every other day, and/or α-MT (2 mg/mL, M8377, Sigma) in drinking water. Tumor diameters were measured using calipers.

tumor cells [2] = assay: tumor receptivity to CTL-killing in vitro; format: cell-based; conditions: FIG. 9g as printed
tumor cells [3] = conditions: reference 46; cited from earlier work
4T1 cells = assay: 4T1 cell stiffness in vitro, Optical Tweezers Microscopy; format: cell-based, mouse; conditions: FIG. 8c
Procedure: OTM was established to measure tumor cell stiffness. A modular OTM (Thorlabs—OKBT) was adapted for axial cell indentation and force measurement. Briefly, a collimated laser beam (YLM-5-IPG Photonics—Yb fiber laser 1064 nm) was focused through a 100× objective (Nikon, N.A.=1.25, oil immersion) to produce a stable optical trap for 3 μm diameter silica microbeads (Bangs Laboratories) dispersed in the medium. During data acquisition, the cells were maintained at 37° C. by an integrated temperature controller unit (RS Components). The sample was imaged through the trapping objective and a tube lens by a CMOS camera (Thorlabs—DCC1240C). A microbead probe was individually trapped and positioned above the cell nucleus area of a selected cell using a piezoelectric NanoMax 3-axis flexure stage (Thorlabs). The position of the microbead in the trap was tracked by back focal plane interferometry method using the laser light scattered by the trapped bead. The trap height was in the range 3-6 μm from the cover-slip. The trap stiffness was calculated using the equipartition theorem and the power spectrum density methods considering the stiffness variations due to spherical aberrations and neighborhood of the cover-slip. […] Tumor cell stiffness was determined and expressed as […] per site. At least 15 cells per condition were analyzed.

4T1 tumors [4] = assay: Myh9 and Mylk expression in 4T1 tumors of treated mice (real-time PCR, immunoblots); set-up: species or system mouse; conditions: in vivo, α-MT in drinking water
Procedure: as §1
Total RNA was extracted using TRIzol™ Reagent (ThermoFisher Scientific, USA). RNA was quantified by using NanoDrop spectrophotometer. Reverse transcription of the total cellular RNA was carried out using oligo (dT) primers and M-MLV reverse transcriptase (ThermoFisher Scientific, USA). RT-PCR primers are listed (Table 6). PCR was performed using QuantStudio 3 Real-time PCR system (Appliedbiosystems, Thermo Fisher Scientific, USA).
Cell lysates were prepared in RIPA buffer (Thermo Fisher Scientific, USA). The protein concentrations of cell lysates were determined by BCA protein assay kit (Thermo Scientific, USA). Equivalent amounts of total cellular protein were separated by SDS PAGE and transferred to PVDF membranes. The proteins were detected with specific antibodies (Table 7) and developed using ChemiDoc™ Imaging System (Bio-Rad, USA).

4T1 tumors [5] = assay: tumor stiffness in vivo by atomic force microscopy; set-up: species or system mouse; conditions: FIG. 5f
Procedure: as §1
AFM was used to measure tumor tissue stiffness in vivo. MFP-3D AFM (Asylum Research, Santa Barbara, CA) combined with a Nikon Ti inverted optical microscope (Nikon, Melville, NY) was used to optically align the probe to the cells. The probes used in this study were MCST-AUHW (Bruker, Camarillo, CA) with a nominal spring constant of 0.03 N/m. […] To eliminate the confounding effects of neighboring cells on cytoskeleton arrangement and morphology, single cells were measured.
For in vivo tumor cell stiffness detection, fresh tumor tissues were excised and prepared immediately as frozen slices. […] The deflection sensitivity was determined in fluid using glass substrates as an infinitely stiff reference material. AFM at room temperature involved recording up to 6×6 point grids (36 force-displacement curves per map) was recorded. […] Force curves were analyzed using the Oliver and Pharr method. Tumor stiffness was determined and expressed as log 10 (pascal) per site. At least 24 sites per tumor tissue were analyzed.

SLC6A14 = biological target: T1, SLC6A14 (Homo sapiens, UniProt Q9UN76); conditions: reference 41; cited from earlier work
T1 sequence (Q9UN76 1-642): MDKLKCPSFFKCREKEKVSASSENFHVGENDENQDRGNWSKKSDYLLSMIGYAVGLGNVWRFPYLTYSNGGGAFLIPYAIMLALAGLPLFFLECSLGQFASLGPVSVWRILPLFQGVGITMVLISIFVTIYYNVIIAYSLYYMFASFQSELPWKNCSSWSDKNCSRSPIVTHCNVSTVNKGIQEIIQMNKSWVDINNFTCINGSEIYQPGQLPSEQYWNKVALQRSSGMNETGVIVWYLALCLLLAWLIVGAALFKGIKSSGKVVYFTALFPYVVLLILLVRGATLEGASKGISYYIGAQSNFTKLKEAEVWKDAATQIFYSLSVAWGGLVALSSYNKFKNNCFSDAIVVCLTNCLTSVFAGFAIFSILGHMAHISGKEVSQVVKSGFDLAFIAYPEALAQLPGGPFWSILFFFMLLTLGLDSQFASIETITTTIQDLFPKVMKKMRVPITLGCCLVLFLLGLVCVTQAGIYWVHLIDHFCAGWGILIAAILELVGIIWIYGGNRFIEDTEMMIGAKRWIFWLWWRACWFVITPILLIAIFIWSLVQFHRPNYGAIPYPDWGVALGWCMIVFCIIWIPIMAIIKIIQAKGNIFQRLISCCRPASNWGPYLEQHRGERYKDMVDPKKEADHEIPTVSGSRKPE

SMILES | perforin and granzyme B-induced T47D cell death (T47D cells) | 4T1 tumor progression / tumor growth (4T1 tumors [1]; 4-HAP, tumor weights and volume, FIG. 5k-l) | tumor receptivity to CTL-killing (tumor cells [2]) | stiffening of tumor cells (tumor cells [3]) | 4T1 cell stiffness (4T1 cells) | levels of Myh9 and Mylk proteins in 4T1 tumors (4T1 tumors [4]; immunoblots, FIG. 5e) | levels of Myh9 and Mylk transcripts in 4T1 tumors (4T1 tumors [4]; real-time PCR, FIG. 5d) | 4T1 tumor cell stiffness in vivo (4T1 tumors [5]) | 4T1 tumor progression / tumor growth (4T1 tumors [1]; α-MT, tumor volumes and weight, FIG. 5i-j) | inhibition of SLC6A14 (SLC6A14)
CC(=O)c1ccc(O)cc1 [4-HAP, 4′-Hydroxyacetophenone] | rescued | partially slowed down | promote | can stiffen tumor cells | – | – | – | – | – | –
CC(N)(Cc1c[nH]c2ccccc12)C(=O)O (racemic) [α-MT, α-methyl-DL-tryptophan] | – | – | – | – | enhanced | reduced levels | reduced levels | increased | partially and similarly slowed down | functionally inhibits

Reference: patent publication US20240299354A1, “COMPOSITIONS AND METHODS FOR TREATING CANCER” (The Regents of the University of Michigan, priority 2021, published 2024)
